Assay results taken from patent publication US20110300566A1, “METHODS FOR SCREENING FOR HISTONE DEACETYLASE ACTIVITY AND FOR IDENTIFYING HISTONE DEACETYLASE INHIBITORS” (priority 2002, published 2011).
Entries after “also recorded” stand apart in the source; their conditions may differ.

Assays:
HDLP = experiment: Histone deacetylase fluorescent activity assay (7AC hydrolysis); format: biochemical, Aquifex aeolicus; conditions: 7AC as substrate; 330 nM GST-HDLP; pH 8.0
Procedure: (§1) As depicted in FIG. 1, the inventive fluorescence-based HDAC assay monitors the hydrolysis of 7AC to 7-hydroxycoumarin, or of ACC to 7-hydroxycoumarin-3-carboxylic acid, at λex=332 nm and λem=447 nm. […] Utilization rations for each enzyme with the 7AC substrate were calculated. For Hos3, the utilization ratio was 1.9122×10^−4 s^−1, and 1274.8 M^−1 s^−1 when normalized by enzyme concentration. For HDLP, the utilization ratio was 2.0375×10^−4 s^−1, and 612.8 M^−1 s^−1 when normalized by enzyme concentration. For HDAC2, the utilization ratio was 1.2526×10^−5 s^−1, and 35.8 M^−1 s^−1 when normalized by enzyme concentration, as shown in Table 1.
(§2) HDAC activity assays were performed in HDAC assay buffer (20 mM Tris, pH 8.0, 500 mM NaCl, 1 mM MnCl2) to a final reaction volume of 1 ml in quartz spectrophotometer cuvettes. Fluorescence spectrophotometry was used to monitor ACC or 7AC hydrolysis (λex=332 nm, λem=447 nm). Internal fluorescence intensity calibrations were obtained using quinine sulfate as known in the art. ACC or 7AC substrate (solubilized in 100% DMSO) was added in the appropriate concentrations to the assay buffer (1% final concentration of DMSO) and the basal rate of hydrolysis was recorded. After 90 seconds, 150 nM Hos3 enzyme was added and the reaction was allowed to proceed for 600 seconds. […] Utilization ratios for Hos3 were calculated based on the adjusted initial rates. […]

Hos3 [1] = molecular target: T1, Hos3 (Saccharomyces cerevisiae, UniProt Q02959); experiment: as above; format: biochemical; conditions: 7AC as substrate; 150 nM Hos3; pH 8.0
T1 construct: made in house; host or cells: E. coli BL21(DE3)
T1 sequence (Q02959 1-697): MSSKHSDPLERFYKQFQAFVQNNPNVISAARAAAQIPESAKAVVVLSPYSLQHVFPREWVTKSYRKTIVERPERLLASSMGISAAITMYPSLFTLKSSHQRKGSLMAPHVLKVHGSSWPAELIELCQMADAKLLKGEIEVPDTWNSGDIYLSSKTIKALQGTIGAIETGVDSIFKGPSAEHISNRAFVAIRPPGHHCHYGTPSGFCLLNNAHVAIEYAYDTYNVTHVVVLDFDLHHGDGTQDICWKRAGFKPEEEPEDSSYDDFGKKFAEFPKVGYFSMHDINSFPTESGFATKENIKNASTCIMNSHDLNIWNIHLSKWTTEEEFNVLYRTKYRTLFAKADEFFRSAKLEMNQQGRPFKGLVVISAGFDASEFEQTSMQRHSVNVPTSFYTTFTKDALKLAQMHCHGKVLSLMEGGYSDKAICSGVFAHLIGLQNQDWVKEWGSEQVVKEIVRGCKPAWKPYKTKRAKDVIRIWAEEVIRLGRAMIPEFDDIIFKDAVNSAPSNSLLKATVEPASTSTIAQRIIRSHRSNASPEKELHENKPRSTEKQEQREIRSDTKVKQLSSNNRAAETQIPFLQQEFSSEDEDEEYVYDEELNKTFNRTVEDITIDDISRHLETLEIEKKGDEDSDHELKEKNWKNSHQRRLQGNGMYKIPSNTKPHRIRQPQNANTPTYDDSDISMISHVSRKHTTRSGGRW
Procedure: as §1, §2

[2] = Solubility of substrate in assay buffer; format: physicochemical; conditions: HDAC assay buffer
[3] = Background (basal) rate of substrate hydrolysis in assay buffer; format: physicochemical; conditions: assay buffer at pH 8.0; compared with ACC
Procedure: as §1, §2

HDAC2 = molecular target: T2, HDAC2 (Homo sapiens, UniProt Q92769); experiment: Histone deacetylase fluorescent activity assay (7AC hydrolysis); format: biochemical; conditions: 7AC as substrate; 350 nM GST-HDAC2; pH 8.0
T2 construct: made in house; host or cells: E. coli BL21(DE3)
Procedure: as §1, §2

Hos3 [4] = molecular target: T1, Hos3; experiment: HDAC inhibitor studies (competition with 7AC substrate, fluorescent assay); format: biochemical; conditions: for IC50: Hos3 (150 nM) with 7AC (75 mM) substrate; for Mode of Inhibition: Hos3, 7AC substrate, double-reciprocal plots, IC50 vs substrate concentration for TSA
Procedure: Characterization of the Mechanism of Inhibition. Inhibitor studies were conducted using the 7AC substrate and the fluorescent histone deacetylase activity assay.
Competition experiments were performed in HDAC assay buffer (20 mM Tris, pH 8.0, 500 mM NaCl, 1 mM MnCl2) to a final reaction volume of 1 ml. Trichostatin A was solubilized in 100% DMSO, yielding a final concentration of 2% DMSO in this reaction. […] The final DMSO concentration in these reactions was 1%. 7AC substrate and inhibitor were added in the appropriate concentrations to the assay buffer and the basal rate of hydrolysis was recorded. Hos3 enzyme (150 nM) was added after 90 seconds and the reaction was allowed to proceed for 600 seconds. Initial rate data was transformed into appropriate rates and dose response plots were generated. IC50 values were calculated using the program Kaleidagraph with equation 4: […]
where vi is the initial velocity in the presence of inhibitor, vo, is the initial velocity in the absence of inhibitor, and [I] is the concentration of inhibitor. Ki values were determined by Dixon plots […]. The modes of inhibition were determined by double-reciprocal or Lineweaver-Burk plots, where 1/v is plotted as a function of 1/[S], using the programs of Cleland.

Hos3 [5] = molecular target: T1, Hos3; experiment: as above; format: biochemical; conditions: Hos3 (150 nM), slope of Henderson plot
[6] = substrate: CC(=O)Oc1ccc([N+](=O)[O-])cc1; experiment: UV-based histone deacetylase activity assay; format: biochemical, Saccharomyces cerevisiae; conditions: other: MBP-Hos3; UV at 410 nm
Excerpt: The substrates 7AC and ACC can also be effectively utilized in a UV assay. The substrate absorbs from 250-340 nm, while the product has a maximal absorbance at 375 nm. So substrate hydrolysis/product formation can be monitored by the increase in absorbance at 375 nm. […] Para-nitrophenylacetate can also be used to assay HDAC activity. Upon acetate hydrolysis, the para-nitrophenylacetate liberates the colored p-nitrophenol chromophore; this reaction can be monitored on the UV at 410 nm.
HDAC activity assays were performed in HDAC Assay Buffer to a final reaction volume of 1 ml in quartz cuvettes. UV/Vis spectrophotometer was used to monitor the rate of 7AC hydrolysis. The 7AC substrate absorbs from 250-340 nm, while the product, 7-hydroxycoumarin, has a maximal absorbance at 375 nm. Reactions were initiated with substrate and allowed to proceed for 300 seconds, while monitoring the increase in absorbance at 375 nm. Para-nitrophenylacetate was also used to assay HDAC activity. Upon acetate hydrolysis, the para-nitrophenylacetate liberated the colored p-nitrophenol chromophore; this reaction was monitored on the UV at 410 nm. Initial rates and utilization ratios were calculated as described above.

T2 sequence (Q92769 whole entry): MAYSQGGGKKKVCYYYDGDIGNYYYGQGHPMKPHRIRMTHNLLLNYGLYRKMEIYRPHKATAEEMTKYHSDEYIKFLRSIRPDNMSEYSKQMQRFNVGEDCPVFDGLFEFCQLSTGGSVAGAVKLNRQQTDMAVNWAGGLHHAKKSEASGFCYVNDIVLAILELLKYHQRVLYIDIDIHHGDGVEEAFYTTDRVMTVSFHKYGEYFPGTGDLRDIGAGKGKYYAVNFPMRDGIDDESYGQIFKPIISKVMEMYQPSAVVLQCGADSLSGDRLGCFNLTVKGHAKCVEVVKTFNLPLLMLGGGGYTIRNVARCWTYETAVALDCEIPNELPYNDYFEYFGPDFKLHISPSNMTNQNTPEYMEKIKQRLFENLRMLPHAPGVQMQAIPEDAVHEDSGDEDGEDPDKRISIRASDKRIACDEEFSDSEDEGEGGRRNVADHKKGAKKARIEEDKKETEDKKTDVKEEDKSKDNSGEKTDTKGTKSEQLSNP

CC(=O)Oc1ccc2ccc(=O)oc2c1 [7AC, 7-Acetoxycoumarin]
V/K (utilization ratio) (HDLP): 0.00020375 s⁻¹ | V/[Et]/K (utilization ratio normalized by enzyme concentration) (HDLP): 612.8 M⁻¹ s⁻¹ | V/K (utilization ratio) (Hos3 [1]): 0.00019122 s⁻¹ | V/[Et]/K (utilization ratio normalized by enzyme concentration) (Hos3 [1]): 1274.8 M⁻¹ s⁻¹ | solubility ([2]; aqueous buffer): ≤ 1 mM | Background rate of hydrolysis [3]: lower background rate of hydrolysis | V/K (utilization ratio) (HDAC2): 1.2526e-05 s⁻¹ | V/[Et]/K (utilization ratio normalized by enzyme concentration) (HDAC2): 35.8 M⁻¹ s⁻¹

CCCC(=O)[O-].[Na+] [NaB, sodium butyrate]
IC50 (Hos3 [4]): 13.4 mM | Ki (Hos3 [4]; Hos3 (150 nM), 7AC substrate, Dixon plot): 12 mM | Mode of Inhibition (Hos3 [4]): Mixed- | Mode of Inhibition (Hos3 [4]; listed as Sodium butyrate): mixed-type inhibition | Mode of Inhibition (Hos3 [4]; listed as sodium butyrate): mixed-competitive inhibitor

CC(=O)Oc1ccc([N+](=O)[O-])cc1 [Para-nitrophenylacetate, 4-nitrophenylacetate]
Solubility limitation [2]: subject to solubility limitations that prevent complete saturation of the enzyme

CC(/C=C/C(=O)NO)=C\[C@@H](C)C(=O)c1ccc(N(C)C)cc1 [TSA, Trichostatin A]
Ki (Hos3 [5]): 81 nM | IC50 (Hos3 [4]): 0.000127 mM | Mode of Inhibition (Hos3 [4]): Tight-binding | Mode of Inhibition (Hos3 [4]; listed as Trichostatin A): tight-binding competitive inhibitor; also recorded: tight-binding, competitive inhibitor; also recorded: tight binding competitive inhibition

B1: Hos3 (Saccharomyces cerevisiae S288C) (protein)
chain: MSSKHSDPLERFYKQFQAFVQNNPNVISAARAAAQIPESAKAVVVLSPYSLQHVFPREWVTKSYRKTIVERPERLLASSMGISAAITMYPSLFTLKSSHQRKGSLMAPHVLKVHGSSWPAELIELCQMADAKLLKGEIEVPDTWNSGDIYLSSKTIKALQGTIGAIETGVDSIFKGPSAEHISNRAFVAIRPPGHHCHYGTPSGFCLLNNAHVAIEYAYDTYNVTHVVVLDFDLHHGDGTQDICWKRAGFKPEEEPEDSSYDDFGKKFAEFPKVGYFSMHDINSFPTESGFATKENIKNASTCIMNSHDLNIWNIHLSKWTTEEEFNVLYRTKYRTLFAKADEFFRSAKLEMNQQGRPFKGLVVISAGFDASEFEQTSMQRHSVNVPTSFYTTFTKDALKLAQMHCHGKVLSLMEGGYSDKAICSGVFAHLIGLQNQDWVKEWGSEQVVKEIVRGCKPAWKPYKTKRAKDVIRIWAEEVIRLGRAMIPEFDDIIFKDAVNSAPSNSLLKATVEPASTSTIAQRIIRSHRSNASPEKELHENKPRSTEKQEQREIRSDTKVKQLSSNNRAAETQIPFLQQEFSSEDEDEEYVYDEELNKTFNRTVEDITIDDISRHLETLEIEKKGDEDSDHELKEKNWKNSHQRRLQGNGMYKIPSNTKPHRIRQPQNANTPTYDDSDISMISHVSRKHTTRSGGRW
notes: made in house; host or cells: E. coli BL21(DE3)
Km [6]: 8.3 mM
